#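 Protocol summary: plate cells (96-well), add compound at 5 concentrations, incubate 48 h, interpolate endpoints linearly. GI50: concentration for 50% inhibition of growth. At the TGI there is no net growth.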
# Tests used:
# Test in all cases: NCI-60 cell line screen, 48 h
# 786-0 renal = test system: 786-0 renal
# A498 renal = test system: A498 renal
# A549 NSCLC = test system: A549 NSCLC
# ACHN renal = test system: ACHN renal
# BT-549 breast = test system: BT-549 breast
# CAKI-1 renal = test system: CAKI-1 renal
# CCRF-CEM leukemia = test system: CCRF-CEM leukemia
# DU-145 prostate = test system: DU-145 prostate
# EKVX NSCLC = test system: EKVX NSCLC
# HCC-2998 colon = test system: HCC-2998 colon
# HCT-116 colon = test system: HCT-116 colon
# HCT-15 colon = test system: HCT-15 colon
# HL-60(TB) leukemia = test system: HL-60(TB) leukemia
# HOP-62 NSCLC = test system: HOP-62 NSCLC
# HOP-92 NSCLC = test system: HOP-92 NSCLC
# HS 578T breast = test system: HS 578T breast
# IGROV1 ovarian = test system: IGROV1 ovarian
# K-562 leukemia = test system: K-562 leukemia
# KM12 colon = test system: KM12 colon
# LOX IMVI melanoma = test system: LOX IMVI melanoma
# M14 melanoma = test system: M14 melanoma
# MALME-3M melanoma = test system: MALME-3M melanoma
# MCF7 breast = test system: MCF7 breast
# MDA-MB-231 breast = test system: MDA-MB-231 breast
# MDA-MB-435 = test system: MDA-MB-435
# MDA-MB-468 breast = test system: MDA-MB-468 breast
# MOLT-4 leukemia = test system: MOLT-4 leukemia
# NCI-H226 lung = test system: NCI-H226 lung
# NCI-H23 lung = test system: NCI-H23 lung
# NCI-H460 lung = test system: NCI-H460 lung
# NCI-H522 lung = test system: NCI-H522 lung
# NCI/ADR-RES ovarian = test system: NCI/ADR-RES ovarian
# OVCAR-3 ovarian = test system: OVCAR-3 ovarian
# OVCAR-4 ovarian = test system: OVCAR-4 ovarian
# OVCAR-5 ovarian = test system: OVCAR-5 ovarian
# OVCAR-8 ovarian = test system: OVCAR-8 ovarian
# PC-3 prostate = test system: PC-3 prostate
# RPMI-8226 leukemia = test system: RPMI-8226 leukemia
# RXF 393 renal = test system: RXF 393 renal
# SF-268 CNS = test system: SF-268 CNS
# SF-295 CNS = test system: SF-295 CNS
# SF-539 CNS = test system: SF-539 CNS
# SK-MEL-2 melanoma = test system: SK-MEL-2 melanoma
# SK-MEL-28 melanoma = test system: SK-MEL-28 melanoma
# SK-OV-3 ovarian = test system: SK-OV-3 ovarian
# SN12C renal = test system: SN12C renal
# SNB-19 CNS = test system: SNB-19 CNS
# SNB-75 CNS = test system: SNB-75 CNS
# SR leukemia = test system: SR leukemia
# SW-620 colon = test system: SW-620 colon
# T-47D breast = test system: T-47D breast
# TK-10 renal = test system: TK-10 renal
# U251 CNS = test system: U251 CNS
# UACC-257 melanoma = test system: UACC-257 melanoma
# UACC-62 melanoma = test system: UACC-62 melanoma
# UO-31 renal = test system: UO-31 renal
structure (smiles),measurement,setting,value
COc1ccc(N(C)c2cc(C#N)nc3ccccc23)cc1/C=C/C(=O)NO,GI50,786-0 renal,< 0.01 µM
same,TGI,786-0 renal,15 µM
same,GI50,A498 renal,15.7 µM
same,TGI,A498 renal,54.2 µM
same,GI50,A549 NSCLC,< 0.01 µM
same,TGI,A549 NSCLC,22.4 µM
same,GI50,ACHN renal,< 0.01 µM
same,TGI,ACHN renal,11.7 µM
same,GI50,BT-549 breast,< 0.01 µM
same,TGI,BT-549 breast,1.91 µM
same,GI50,CAKI-1 renal,< 0.01 µM
same,TGI,CAKI-1 renal,6.22 µM
same,GI50,CCRF-CEM leukemia,< 0.01 µM
same,GI50,DU-145 prostate,< 0.01 µM
same,TGI,DU-145 prostate,16.8 µM
same,GI50,EKVX NSCLC,< 0.01 µM
same,TGI,EKVX NSCLC,13.5 µM
same,GI50,HCC-2998 colon,< 0.01 µM
same,TGI,HCC-2998 colon,< 0.01 µM
same,GI50,HCT-116 colon,< 0.01 µM
same,TGI,HCT-116 colon,1.39 µM
same,GI50,HCT-15 colon,< 0.01 µM
same,TGI,HCT-15 colon,19.7 µM
same,GI50,HL-60(TB) leukemia,< 0.01 µM
same,TGI,HL-60(TB) leukemia,< 0.01 µM
same,GI50,HOP-62 NSCLC,< 0.01 µM
same,TGI,HOP-62 NSCLC,15.3 µM
same,TGI,HOP-92 NSCLC,9.06 µM
same,GI50,HS 578T breast,< 0.01 µM
same,TGI,HS 578T breast,9.65 µM
same,GI50,IGROV1 ovarian,< 0.01 µM
same,TGI,IGROV1 ovarian,4.55 µM
same,GI50,K-562 leukemia,< 0.01 µM
same,TGI,K-562 leukemia,> 40.3 µM
same,GI50,KM12 colon,< 0.01 µM
same,TGI,KM12 colon,1.22 µM
same,GI50,LOX IMVI melanoma,< 0.01 µM
same,TGI,LOX IMVI melanoma,1.4 µM
same,GI50,M14 melanoma,< 0.01 µM
same,TGI,M14 melanoma,1.86 µM
same,GI50,MALME-3M melanoma,< 0.01 µM
same,TGI,MALME-3M melanoma,8.74 µM
same,GI50,MCF7 breast,< 0.01 µM
same,TGI,MCF7 breast,17.4 µM
same,GI50,MDA-MB-231 breast,< 0.01 µM
same,TGI,MDA-MB-231 breast,< 0.01 µM
same,GI50,MDA-MB-435,< 0.01 µM
same,TGI,MDA-MB-435,< 0.01 µM
same,GI50,MDA-MB-468 breast,< 0.01 µM
same,TGI,MDA-MB-468 breast,< 0.01 µM
same,GI50,MOLT-4 leukemia,< 0.01 µM
same,TGI,MOLT-4 leukemia,> 35.9 µM
same,GI50,NCI-H226 lung,< 0.01 µM
same,TGI,NCI-H226 lung,5.82 µM
same,GI50,NCI-H23 lung,< 0.01 µM
same,TGI,NCI-H23 lung,1.25 µM
same,GI50,NCI-H460 lung,< 0.01 µM
same,TGI,NCI-H460 lung,3.65 µM
same,GI50,NCI-H522 lung,< 0.01 µM
same,TGI,NCI-H522 lung,< 0.01 µM
same,GI50,NCI/ADR-RES ovarian,< 0.01 µM
same,TGI,NCI/ADR-RES ovarian,< 0.01 µM
same,GI50,OVCAR-3 ovarian,< 0.01 µM
same,TGI,OVCAR-3 ovarian,6.18 µM
same,GI50,OVCAR-4 ovarian,1.19 µM
same,TGI,OVCAR-4 ovarian,16.9 µM
same,GI50,OVCAR-5 ovarian,< 0.01 µM
same,TGI,OVCAR-5 ovarian,10.7 µM
same,GI50,OVCAR-8 ovarian,< 0.01 µM
same,GI50,PC-3 prostate,< 0.01 µM
same,TGI,PC-3 prostate,> 40.8 µM
same,GI50,RPMI-8226 leukemia,< 0.01 µM
same,TGI,RPMI-8226 leukemia,19.2 µM
same,GI50,RXF 393 renal,< 0.0435 µM
same,TGI,RXF 393 renal,3.83 µM
same,GI50,SF-268 CNS,< 0.01 µM
same,TGI,SF-268 CNS,14.2 µM
same,GI50,SF-295 CNS,< 0.01 µM
same,GI50,SF-539 CNS,< 0.01 µM
same,TGI,SF-539 CNS,< 0.01 µM
same,GI50,SK-MEL-2 melanoma,< 0.01 µM
same,TGI,SK-MEL-2 melanoma,0.63 µM
same,GI50,SK-MEL-28 melanoma,0.551 µM
same,TGI,SK-MEL-28 melanoma,3.72 µM
same,GI50,SK-OV-3 ovarian,< 0.01 µM
same,TGI,SK-OV-3 ovarian,12.4 µM
same,GI50,SN12C renal,< 0.01 µM
same,TGI,SN12C renal,5.95 µM
same,GI50,SNB-19 CNS,< 0.01 µM
same,TGI,SNB-19 CNS,15.1 µM
same,GI50,SNB-75 CNS,< 0.01 µM
same,TGI,SNB-75 CNS,2.62 µM
same,GI50,SR leukemia,< 0.01 µM
same,GI50,SW-620 colon,< 0.01 µM
same,TGI,SW-620 colon,15.2 µM
same,GI50,T-47D breast,2.34 µM
same,TGI,T-47D breast,80.1 µM
same,GI50,TK-10 renal,2.22 µM
same,TGI,TK-10 renal,57.1 µM
same,GI50,U251 CNS,< 0.01 µM
same,TGI,U251 CNS,9.38 µM
same,GI50,UACC-257 melanoma,1.68 µM
same,TGI,UACC-257 melanoma,20.3 µM
same,GI50,UACC-62 melanoma,< 0.01 µM
same,TGI,UACC-62 melanoma,2.1 µM
same,GI50,UO-31 renal,< 0.01 µM
same,TGI,UO-31 renal,12.1 µM

# — PubChem BioAssay (NCI)
